Experimental data reported in US6852715B1, “Indolocarbazole alkaloids from a marine actinomycete” (Instituto Biomar S.A., priority 1909, dated 2005).

Columns and labels:
Format in all cases: cell-based
[1] = tested on: P-388D1 (suspension culture of a lymphoid neoplasm from DBA/2 mouse); assay: In vitro antitumor activity, P-388D1 cell growth; details: P388D1 cells, three days of incubation at 37° C., growth vs control wells without drug
Experimental: (§1) The antitumor activities of IB-97224 and IB-97225 have been determined in vitro in cell cultures of mouse leukemia P-388D1, human lung carcinoma A-549, human colon carcinoma HT-29 and human melanoma SK-MEL-28. The procedure was carried out using the methodology described by Bergeron, et al. (1984), and by Schroeder, et al. (1981).
(§2) Biological activity: The antitumor cells employed have been P-388D1 (suspension culture of a lymphoid neoplasm from DBA/2 mouse), A-549 (monolayer culture of a human macrocytic lung carcinoma), HT-29 (monolayer culture of a human colon carcinoma), and SK-MEL-28 (monolayer culture of a human melanoma). P-388D1 cells were seeded into 16 mm wells at 1×10^4 cells per well in 1 ml aliquots of MEM 5FCS containing the indicated concentration of drug. A separate set of cultures without drug was seeded as control of growth to ensure that cells remained in exponential phase of growth. All determinations were carried out duplicated. After three days of incubation at 37° C. in 10% CO2 atmosphere with 98% humidity, the IC50 was calculated by comparing the growth in wells with drug with the growth in control wells without the drug. […] The IC50 was calculated by comparing the growth in wells with drug with the growth in control wells without the drug.

[2] = tested on: SK-MEL-28 (monolayer culture of a human melanoma); assay: In vitro antitumor activity, SK-MEL-28 cell growth (Crystal Violet); details: SK-MEL-28 cells, three days of incubation at 37° C., Crystal Violet staining
Experimental: as §1, §2

[3] = tested on: HT-29 (monolayer culture of a human colon carcinoma); assay: In vitro antitumor activity, HT-29 cell growth (Crystal Violet); details: HT-29 cells, three days of incubation at 37° C., Crystal Violet staining
Experimental: as §1, §2

[4] = tested on: A-549 (monolayer culture of a human macrocytic lung carcinoma); assay: In vitro antitumor activity, A-549 cell growth (Crystal Violet); details: A-549 cells, three days of incubation at 37° C., Crystal Violet staining
Experimental: as §1, §2

| Structure (SMILES) | IC50 [1] | IC50 [2] | IC50 [3] | IC50 [4] |
| --- | --- | --- | --- | --- |
| CO[C@H]1[C@@H](N(C)C)[C@H](O)C2OC1(C)n1c3ccccc3c3c4c(c5c6ccccc6n2c5c31)C(=O)NC4 (some centres unmarked) [IB-97224, 4′N-methyl-5′-hydroxystaurosporine] | 40 nM | 4 nM | 4 nM | 2 nM |
| CN[C@H]1[C@H](O)[C@@H]2O[C@](C)([C@H]1OC)n1c3ccccc3c3c4c(c5c6ccccc6n2c5c31)C(=O)NC4 [IB-97225, 5′-hydroxystaurosporine] | 20 nM | 2 nM | 4 nM | 2 nM |
